Measured values taken from article PMC2248166, “Quantitative peptide binding motifs for 19 human and mouse MHC class I molecules derived using positional scanning combinatorial peptide libraries” (Immunome Research, 2008).

Assays:
HLA A*3001 = HLA A*3001 (Homo sapiens, UniProt P04439, D140H/D185E/E176W/F33S/G80R/H175R/K168Q/R138E/R41S); experiment: biochemical; assay type: binding
HLA A*3201 = HLA A*3201 (Homo sapiens, UniProt P04439, A270S/D101S/D185E/E176V/E277Q/F133L/G103R/G107R/G231S/H175R/I121M/I218V/I322F/K168Q/L105A/L300P/L318F/M331R/P208A/P217A/Q94H/R106L/R138Q/S129P/T104I/T323A/T345S/V100E/V321M/V358M); experiment: biochemical; assay type: binding
HLA A*6802 = HLA A*6802 (Homo sapiens, UniProt P04439, A269V/D140Y/D185E/E176V/E277Q/E87N/F33Y/G231S/I121R/I166T/I218V/L180W/L300P/L318F/N151K/P208A/P217A/Q86R/R138H/R169H/S129P/T345S/V36M); assay type: binding
HLA B*0702 = HLA B*0702 (Homo sapiens, UniProt P01889); assay type: binding; settings: positional scanning combinatorial 9-mer library; normalized to 1.0 for the best residue at each position
HLA B*0801 = HLA B*0801 (Homo sapiens, UniProt P01889, A93T/A95T/D138N/E176V/E187T/K202T/Q94N/R180D/S35A/V36M/Y33D/Y91F); experiment: biochemical; assay type: binding
HLA B*1501 = HLA B*1501 (Homo sapiens, UniProt P01889, A329T/A93T/A95T/C349S/D201E/D98Y/E187L/E204Q/E69M/E70A/K202T/N87E/Q94N/R155S/R180W/S121R/S35A/S48A/V306I/V36M/Y140S/Y91S); experiment: biochemical; assay type: binding
HLA B*1503 = HLA B*1503 (Homo sapiens, UniProt P01889, A329T/A93T/A95T/C349S/D201E/D98Y/E187L/E204Q/K202T/N87E/Q94N/R155S/R180L/S121R/S35A/V306I/V36M/Y140S/Y91S); experiment: biochemical; assay type: binding
HLA B*2705 = HLA B*2705 (Homo sapiens, UniProt P01889, D138H/D201E/E176V/E204Q/G107R/H137Y/K202T/N104T/N87E/Q56L/Q94K/R106L/R155S/R180L/S101D/S121N/S48T/Y140D/Y33H/Y91C); assay type: binding; settings: positional scanning combinatorial 9-mer library; normalized to 1.0 for the best residue at each position
HLA B*3501 = HLA B*3501 (Homo sapiens, UniProt P01889, A329T/A93T/A95T/C349S/D201E/D98Y/E176V/E187L/E204Q/E69T/I218V/K202T/L119I/Q94N/R155S/R180L/S121R/S35A/S48A/T118I/V127L/V306I/V36M/Y140S/Y91F); assay type: binding
HLA B*5101 = HLA B*5101 (Homo sapiens, UniProt P01889, A329T/A93T/A95T/C349S/D138N/D201E/D98Y/E187L/E204Q/E69T/G107R/I218V/K202T/L105A/L119W/N104I/Q94N/R106L/R155S/R180L/S101N/S121T/S35A/S48A/V306I/V36M/Y195H/Y91F); assay type: binding
HLA B*5301 = HLA B*5301 (Homo sapiens, UniProt P01889, A329T/A93T/A95T/C349S/D201E/D98Y/E176V/E187L/E204Q/E69T/G107R/I218V/K202T/L105A/L119I/N104I/Q94N/R106L/R155S/R180L/S101N/S121R/S35A/S48A/T118I/V127L/V306I/V36M/Y140S/Y91F); assay type: binding
HLA B*5401 = HLA B*5401 (Homo sapiens, UniProt P01889, A329T/C349S/D138N/D201E/E176V/E187T/E204Q/E69G/I76V/K202T/L119W/R155S/R180L/S121T/S35A/S48A/V127L/V306I/V36M/Y140L); assay type: binding
HLA B*5801 = HLA B*5801 (Homo sapiens, UniProt P01889, A329T/C349S/D201E/D98Y/E176V/E187L/E204Q/E69T/G107R/I218V/I90N/K202T/L105A/L119I/N104I/N87E/Q89R/Q94S/R106L/R155S/R180L/R86G/S101N/S121R/S35A/S48A/T118I/V127L/V306I/V36M/Y140S/Y91M); assay type: binding
HLA B*5802 = HLA B*5802 (Homo sapiens, UniProt P01889, A329T/C349S/D201E/D98Y/E176V/E187L/E204Q/E69T/G107R/I218V/I90N/K202T/L105A/N104I/N87E/Q89R/Q94S/R106L/R155S/R180L/R86G/S101N/S121W/S35A/S48A/V127L/V306I/V36M/Y140S/Y91M); assay type: binding
H-2 D^b = H-2 D^b (Mus musculus, UniProt P01899); assay type: binding
H-2 D^d = H-2 D^d (Mus musculus, UniProt P01900); assay type: binding
H-2 K^k = H-2 K^k (Mus musculus, UniProt P04223); assay type: binding
HLA A*0201 = HLA A*0201 (Homo sapiens, UniProt P04439, D140Y/D185E/D98H/E176V/E277Q/G131W/G231S/I119V/I121R/I166T/I218V/L300P/L318F/N151K/N90K/P208A/P217A/Q86G/Q94H/R138H/R169H/T345S); settings: positional scanning combinatorial 9-mer library; normalized to 1.0 for the best residue at each position

H-2 K^k, sequence (P01887 21-119): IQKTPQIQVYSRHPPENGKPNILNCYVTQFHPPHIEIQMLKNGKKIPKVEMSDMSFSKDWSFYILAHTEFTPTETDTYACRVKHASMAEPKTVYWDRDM
H-2 K^k, sequence (P04223 22-369): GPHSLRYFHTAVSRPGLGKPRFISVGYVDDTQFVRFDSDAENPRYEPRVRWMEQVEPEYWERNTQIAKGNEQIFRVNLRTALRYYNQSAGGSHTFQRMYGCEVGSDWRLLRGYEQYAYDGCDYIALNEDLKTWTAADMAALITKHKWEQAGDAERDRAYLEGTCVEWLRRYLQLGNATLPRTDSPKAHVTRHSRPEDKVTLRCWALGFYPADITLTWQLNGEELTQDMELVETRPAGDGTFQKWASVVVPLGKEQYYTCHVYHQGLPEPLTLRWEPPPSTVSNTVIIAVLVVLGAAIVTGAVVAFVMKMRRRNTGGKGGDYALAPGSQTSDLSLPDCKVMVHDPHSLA
H-2 D^b, sequence (P01887 21-119): as the sequence (P01887 21-119) above
H-2 D^b, sequence (P01899 25-362): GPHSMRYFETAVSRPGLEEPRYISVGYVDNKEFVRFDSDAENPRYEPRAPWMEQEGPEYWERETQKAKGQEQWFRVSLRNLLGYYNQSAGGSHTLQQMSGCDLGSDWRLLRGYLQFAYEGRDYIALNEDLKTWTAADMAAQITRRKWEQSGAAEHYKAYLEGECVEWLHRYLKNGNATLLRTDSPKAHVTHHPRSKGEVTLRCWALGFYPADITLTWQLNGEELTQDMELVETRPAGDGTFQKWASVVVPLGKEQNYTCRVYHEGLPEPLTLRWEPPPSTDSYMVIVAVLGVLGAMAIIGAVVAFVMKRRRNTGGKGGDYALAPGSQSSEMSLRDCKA
H-2 D^d, sequence (P01900 whole entry, looked up): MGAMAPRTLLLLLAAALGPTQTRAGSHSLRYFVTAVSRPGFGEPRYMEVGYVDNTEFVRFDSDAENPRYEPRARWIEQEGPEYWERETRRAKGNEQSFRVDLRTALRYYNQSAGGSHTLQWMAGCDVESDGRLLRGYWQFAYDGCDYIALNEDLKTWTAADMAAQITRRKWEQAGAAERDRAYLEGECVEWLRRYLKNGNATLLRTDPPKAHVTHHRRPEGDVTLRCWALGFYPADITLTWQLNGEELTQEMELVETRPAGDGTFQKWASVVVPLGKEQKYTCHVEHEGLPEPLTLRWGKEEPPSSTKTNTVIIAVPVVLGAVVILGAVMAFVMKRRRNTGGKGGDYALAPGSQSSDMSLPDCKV

| Sequence | Normalized average relative binding affinity (ARB), HLA A*3001 (HLA A*3001) | Normalized average relative binding affinity (ARB), HLA A*3201 (HLA A*3201) | Normalized average relative binding affinity (ARB), HLA A*6802 (HLA A*6802) | Normalized average relative binding affinity (ARB), HLA B*0702 (HLA B*0702) | Normalized average relative binding affinity (ARB), HLA B*0801 (HLA B*0801) | Normalized average relative binding affinity (ARB), HLA B*1501 (HLA B*1501) | Normalized average relative binding affinity (ARB), HLA B*1503 (HLA B*1503) | Normalized average relative binding affinity (ARB), HLA B*2705 (HLA B*2705) | Normalized average relative binding affinity (ARB), HLA B*3501 (HLA B*3501) | Normalized average relative binding affinity (ARB), HLA B*5101 (HLA B*5101) | Normalized average relative binding affinity (ARB), HLA B*5301 (HLA B*5301) | Normalized average relative binding affinity (ARB), HLA B*5401 (HLA B*5401) | Normalized average relative binding affinity (ARB), HLA B*5801 (HLA B*5801) | Normalized average relative binding affinity (ARB), HLA B*5802 (HLA B*5802) | Normalized average relative binding affinity (ARB), H-2 Db (H-2 D^b) | Normalized average relative binding affinity (ARB), H-2 Dd (H-2 D^d) | Normalized average relative binding affinity (ARB), H-2 Kk (H-2 K^k) | Normalized average relative binding affinity (ARB), HLA A*0201 (HLA A*0201) |
| --- | --- | --- | --- | --- | --- | --- | --- | --- | --- | --- | --- | --- | --- | --- | --- | --- | --- | --- |
| XXLXXXXXX [3064.0050] | 0.033 | 0.58 | 0.10 | 0.071 | 0.21 | 0.18 | 0.043 | 0.55 | 0.43 | 0.54 | 0.59 | 0.040 | 0.61 | 0.59 | 1.0 | 0.0040 | 0.70 | 0.57 |
| GXXXXXXXX [3064.0006] | 0.11 | 0.14 | 0.022 | 0.15 | 0.088 | 0.43 | 0.063 | 0.60 | 0.030 | 0.028 | 0.0086 | 0.0071 | 0.069 | 0.14 | 0.096 | 0.15 | 0.14 | 0.089 |
| XRXXXXXXX [3064.0035] | 0.048 | 0.0090 | 0.0069 | 0.0078 | 0.30 | 0.024 | 0.059 | 1.0 | 0.068 | 0.022 | 0.0045 | 0.0042 | 0.017 | 0.030 | 0.036 | 0.028 | 0.0071 | 0.0016 |
| YXXXXXXXX [3064.0020] | 0.064 | 0.12 | 0.24 | 0.25 | 0.24 | 0.33 | 0.34 | 0.85 | 0.19 | 1.0 | 0.36 | 0.12 | 0.20 | 0.46 | 0.57 | 0.41 | 0.63 | 0.11 |
